Measurements reported in US20110245334A1, “USE OF RACEMATES OF PINOCEMBRIN IN PREPARING MEDICAMENTS FOR TREATING STROKE” (CSPC Zhonggi Pharmaceutical Technology (Shijiazhuang) Co. …, priority 2008, published 2011).

What was measured:
Assay type in all cases: in vivo, rat
[1] = system: tMCAO rats; assay: Brain water content, tMCAO time window study; settings: 2 hours ischemia and 24 hours reperfusion
Protocol: (§1) 1. In the test, transient middle cerebral artery occlusion (tMCAO) model of rats was adopted. The reperfusion was performed after focal cerebral ischemia for 2 hours so as to inspect therapeutic time window of pinocembrin after focal cerebral ischemia. The rats were administered by pinocembrin racemate (1 mg/kg, 5 mg/kg, intravenous injection) after reperfusion 1 hour, 4 hours and 6 hours (i.e., ischemia 3 hour, 6 hours and 8 hours). (R)-pinocembrin and (S)-pinocembrin (1 mg/kg, 5 mg/kg, intravenous injection) were administered after reperfusion 1 hour and 4 hours (i.e., ischemia 3 hour and 6 hours). The therapeutic time windows of these drugs in focal cerebral ischemia were assessed by studying their effects to neurological symptom scores, infarct sizes and brain water contents during 24 hours after tMCAO.
(§2) 2.4 Experimental Grouping and Administration • Sham operation group (intravenous injection of normal saline after 3 hours of ischemia); • Model group (intravenous injection of 50 mg/kg hydroxypropyl β-cyclodextrin after 3 hours of ischemia); • Nimodipine group (1 mg/kg, administered after 3 hours of ischemia); • Pinocembrin racemate group (1 mg/kg, 5 mg/kg, administered after 3, 6 and 8 hours of ischemia); • (R)-pinocembrin group (1 mg/kg, 5 mg/kg, administered after 3 and 6 hours of ischemia); • (S)-pinocembrin group (1 mg/kg, 5 mg/kg, administered after 3 and 6 hours of ischemia).
(§3) First administration was performed by intravenous injection, and intraperitoneal injection was carried out once 12 hours later with a dose 1.5 times of that for intravenous injection.
The wet weight of each animal's brain was weighted before sliced. After staining, the brain slices were dried at 105° C. for 24 hours, and the dry weight of each animal's brain was weighted. The brain water contents of animals of various groups were compared. Brain water content=(brain wet weight−brain dry weight)/brain wet weight×100%.

[2] = system: MCAO rats; assay: Regional cerebral blood flow (LDF), MCAO
From the text: The rats were fixed pronely on the stereotaxic apparatus and subjected to craniotomy. After cleaning for operation visual field, bregma was used as an origin, and a site situated 2 mm behind and 3 mm right to the bregma was selected as a measuring point. The region […] around the site was thinned by a dental drill. In the process, the integrity of dura was maintained and large vessels were avoided. Probe holder was located and fixed.
The rats were supinely fixed on the operating table to carry out MCAO surgery. When a nylon line was inserted in ICA, it was not inserted into intracranial part until LDF value was stable, and blood flow value in 10 min was recorded, and an average value thereof is used as a baseline value of cerebral blood flow. After the MCAO surgery completed, the nylon line was inserted into the intracranial part. When the blood flow value suddenly declined to 20-30% of the baseline value, it was noted that the blood flow in MCA had been blocked. The blood flow value before MCAO in every group was used as a baseline value (100%) of the group. […] LDF value was determined at the same site before the animals was put to death.

[3] = system: plasma fibrinogen; assay: Plasma fibrinogen assay (ELISA) in SHRSP; design: Plasma fibrinogen: unit not given here; settings: SHRSP rats
Protocol: The mixture was centrifuged for 15 min at 3000 rpm and plasma fibrinogen in liquid supernatant was determined by euzymelinked immunosorbent assay (ELISA).

[4] = system: tMCAO rats; assay: Infarct volume (TTC), tMCAO time window study; settings: 2 hours ischemia and 24 hours reperfusion
Protocol: as §1, §2, §3
After neurobehavioral scoring, the rats were put to death by decollation and their brain tissues were taken out quickly and put into a refrigerator of −20° C. 10 min later, the brain tissues were moved to an environment of room temperature. After the olfactory bulb, cerebellar and lower brain stem were resected, the brain tissue was cut into six continuous coronal slices with an interval of 2 mm. Then the brain slices were quickly put into 5 ml solution containing 2% TTC and incubated at a constant temperature of 37° C. and in a condition of darkness for 30 min. During the time, the brain slices were tipped every 5 min. […] Every group of brain slices were put in order and photographed. The photographs were processed by an image analysis system and the infarct areas in each slice were calculated. The infarct volume of each slice was calculated via multiplying the infarct area by thickness of slice (2 mm), and the infarct volume was the sum of infarct volumes of all slices. The infarct volume percentage was expressed as: sick-side infarct volume/total sick-side brain volume.

O=C1CC(c2ccccc2)Oc2cc(O)cc(O)c21 (racemic) [Pinocembrin racemate, pinocembrin racemate]
Brain water content (%) ([1]; 1 mg/kg, 3 h): 82.20 ± 1.00 %
Brain water content (%) ([1]; 1 mg/kg, 6 h): 82.44 ± 1.28 %
Brain water content (%) ([1]; 1 mg/kg, 8 h): 83.26 ± 1.05%
Brain water content (%) ([1]; 5 mg/kg, 3 h): 82.23 ± 1.42 %
Brain water content (%) ([1]; 5 mg/kg, 6 h): 81.12 ± 1.42 %
Brain water content (%) ([1]; 5 mg/kg, 8 h): 83.29 ± 1.79%
regional cerebral blood flow (rCBF) ([2]; time point 10 min, 3 mg/kg): 99.91 ± 7.27 % of baseline value
regional cerebral blood flow (rCBF) ([2]; time point 10 min, 10 mg/kg): 99.91 ± 7.27 % of baseline value
regional cerebral blood flow (rCBF) ([2]; time point 10 min, 30 mg/kg): 99.91 ± 7.27 % of baseline value
regional cerebral blood flow (rCBF) ([2]; time point 20 min, 3 mg/kg): 32.03 ± 6.09 % of baseline value
regional cerebral blood flow (rCBF) ([2]; time point 20 min, 10 mg/kg): 31.45 ± 5.6 % of baseline value
regional cerebral blood flow (rCBF) ([2]; time point 20 min, 30 mg/kg): 37.98 ± 6.87 % of baseline value
regional cerebral blood flow (rCBF) ([2]; time point 30 min, 3 mg/kg): 40.76±6.58 % of baseline value
regional cerebral blood flow (rCBF) ([2]; time point 30 min, 10 mg/kg): 50.09±7.09 % of baseline value
regional cerebral blood flow (rCBF) ([2]; time point 30 min, 30 mg/kg): 53.28±8.03 % of baseline value
regional cerebral blood flow (rCBF) ([2]; time point 40 min, 3 mg/kg): 41.59 ± 6.35 % of baseline value
regional cerebral blood flow (rCBF) ([2]; time point 40 min, 10 mg/kg): 47.72 ± 6.67 % of baseline value
regional cerebral blood flow (rCBF) ([2]; time point 40 min, 30 mg/kg): 54.92 ± 8.58 % of baseline value
regional cerebral blood flow (rCBF) ([2]; time point 50 min, 3 mg/kg): 42.81 ± 5.25 % of baseline value
regional cerebral blood flow (rCBF) ([2]; time point 50 min, 10 mg/kg): 49.98 ± 7.1 % of baseline value
regional cerebral blood flow (rCBF) ([2]; time point 50 min, 30 mg/kg): 55.01 ± 6.25 % of baseline value
regional cerebral blood flow (rCBF) ([2]; time point 60 min, 3 mg/kg): 40.8 ± 7.09 % of baseline value
regional cerebral blood flow (rCBF) ([2]; time point 60 min, 10 mg/kg): 48.99 ± 8.14 % of baseline value
regional cerebral blood flow (rCBF) ([2]; time point 60 min, 30 mg/kg): 57.95 ± 6.09 % of baseline value
regional cerebral blood flow (rCBF) ([2]; time point 70 min, 3 mg/kg): 41.69 ± 8.67 % of baseline value
regional cerebral blood flow (rCBF) ([2]; time point 70 min, 10 mg/kg): 47.01 ± 8.09 % of baseline value
regional cerebral blood flow (rCBF) ([2]; time point 70 min, 30 mg/kg): 53.75 ± 7.09 % of baseline value
regional cerebral blood flow (rCBF) ([2]; time point 80 min, 3 mg/kg): 40.75 ± 7.1 % of baseline value
regional cerebral blood flow (rCBF) ([2]; time point 80 min, 10 mg/kg): 46.07 ± 9.08 % of baseline value
regional cerebral blood flow (rCBF) ([2]; time point 80 min, 30 mg/kg): 54.99 ± 6.67 % of baseline value
regional cerebral blood flow (rCBF) ([2]; time point 90 min, 3 mg/kg): 40.99 ± 8.14 % of baseline value
regional cerebral blood flow (rCBF) ([2]; time point 90 min, 10 mg/kg): 51.85 ± 8.03 % of baseline value
regional cerebral blood flow (rCBF) ([2]; time point 90 min, 30 mg/kg): 55.16 ± 7.1 % of baseline value
regional cerebral blood flow (rCBF) ([2]; time point 100 min, 3 mg/kg): 41.16 ± 6.25 % of baseline value
regional cerebral blood flow (rCBF) ([2]; time point 100 min, 10 mg/kg): 47.12 ± 8.58 % of baseline value
regional cerebral blood flow (rCBF) ([2]; time point 100 min, 30 mg/kg): 56.59 ± 8.14 % of baseline value
regional cerebral blood flow (rCBF) ([2]; time point 110 min, 3 mg/kg): 46.59 ± 7.09 % of baseline value
regional cerebral blood flow (rCBF) ([2]; time point 110 min, 10 mg/kg): 46.89 ± 6.25 % of baseline value
regional cerebral blood flow (rCBF) ([2]; time point 110 min, 30 mg/kg): 57.8 ± 7.27 % of baseline value
regional cerebral blood flow (rCBF) ([2]; time point 120 min, 3 mg/kg): 45.8 ± 5.67 % of baseline value
regional cerebral blood flow (rCBF) ([2]; time point 120 min, 10 mg/kg): 51.8 ± 6.09 % of baseline value
regional cerebral blood flow (rCBF) ([2]; time point 120 min, 30 mg/kg): 64.09 ± 6.09 % of baseline value
regional cerebral blood flow (rCBF) ([2]; time point 130 min, 3 mg/kg): 46.99 ± 6.1 % of baseline value
regional cerebral blood flow (rCBF) ([2]; time point 130 min, 10 mg/kg): 56.59 ± 9.08 % of baseline value
regional cerebral blood flow (rCBF) ([2]; time point 130 min, 30 mg/kg): 61.72 ± 6.58 % of baseline value
regional cerebral blood flow (rCBF) ([2]; time point 140 min, 3 mg/kg): 48.01 ± 7.14 % of baseline value
regional cerebral blood flow (rCBF) ([2]; time point 140 min, 10 mg/kg): 57.8 ± 8.03 % of baseline value
regional cerebral blood flow (rCBF) ([2]; time point 140 min, 30 mg/kg): 64.98 ± 6.35 % of baseline value
regional cerebral blood flow (rCBF) ([2]; time point 150 min, 3 mg/kg): 44.07 ± 7.09 % of baseline value
regional cerebral blood flow (rCBF) ([2]; time point 150 min, 10 mg/kg): 56.99 ± 8.58 % of baseline value
regional cerebral blood flow (rCBF) ([2]; time point 150 min, 30 mg/kg): 63.99 ± 5.25 % of baseline value
regional cerebral blood flow (rCBF) ([2]; time point 160 min, 3 mg/kg): 47.85 ± 6.81 % of baseline value
regional cerebral blood flow (rCBF) ([2]; time point 160 min, 10 mg/kg): 58.01 ± 7.89 % of baseline value
regional cerebral blood flow (rCBF) ([2]; time point 160 min, 30 mg/kg): 57.01 ± 7.09 % of baseline value
regional cerebral blood flow (rCBF) ([2]; time point 170 min, 3 mg/kg): 49.12 ± 6.08 % of baseline value
regional cerebral blood flow (rCBF) ([2]; time point 170 min, 10 mg/kg): 54.07 ± 6.81 % of baseline value
regional cerebral blood flow (rCBF) ([2]; time point 170 min, 30 mg/kg): 65.58 ± 8.67 % of baseline value
regional cerebral blood flow (rCBF) ([2]; time point 180 min, 3 mg/kg): 49.89 ± 7.58 % of baseline value
regional cerebral blood flow (rCBF) ([2]; time point 180 min, 10 mg/kg): 55.9 ± 6.08 % of baseline value
regional cerebral blood flow (rCBF) ([2]; time point 180 min, 30 mg/kg): 62.96 ± 6.81 % of baseline value
Plasma fibrinogen ([3]; 3 mg/kg): 2.79 ± 0.13
Plasma fibrinogen ([3]; 10 mg/kg): 2.62 ± 0.15
Plasma fibrinogen ([3]; 30 mg/kg): 2.56 ± 0.42
Infarct percentage (%) ([4]; 1 mg/kg, 3 h): 16.59 ± 7.98 %
Infarct percentage (%) ([4]; 1 mg/kg, 6 h): 23.01 ± 11.00%
Infarct percentage (%) ([4]; 1 mg/kg, 8 h): 27.16 ± 13.69%
Infarct percentage (%) ([4]; 5 mg/kg, 3 h): 13.64 ± 6.32 %
Infarct percentage (%) ([4]; 5 mg/kg, 6 h): 15.03 ± 4.07 %
Infarct percentage (%) ([4]; 5 mg/kg, 8 h): 28.32 ± 18.65%
